Series [1] can be described thus: Cytotoxicity against bone marrow macrophage cells (unknown origin) assessed as cell viability at 10 uM incubated for 24 hrs by CCK8 assay relative to control. In kind it is toxicity, cell-based. Particulars: read-out: Activity.
Series [2] in a line: Inhibition of RANKL/M-CSF-induced osteoclastogenesis in male C57/BL6 mouse bone marrow cells at 1 uM incubated for 5 to 7 days by TRAP staining based analysis relative to control. It counts as functional. Particulars: C57/BL6, Bone marrow cell, time 5-7 day.
Series [3] can be described thus: Inhibition of RANKL/M-CSF-induced osteoclastogenesis in male C57/BL6 mouse bone marrow cells at 0.1 uM incubated for 5 to 7 days by TRAP staining based analysis relative to control. In kind it is functional. To be noted: C57/BL6, Bone marrow cell, time 5-7 day.
Series [4] is described as follows: Anti-osteoclastogenic activity in bone marrow cells (unknown origin) assessed as inhibition of RANKL/M-CSF-induced osteoclast differentiation measured after 5 days by TRAP staining based analysis. It counts as functional. Particulars: Bone marrow cell, 120 h.

The structures appear in SMILES notation. pIC50: −log10 of the molar value.

Consider `Cc1cccnc1NC(=O)[C@@H]1Cc2c3ccccc3[nH]c2[C@]2(C[C@@H](c3ccccc3)C2)N1`, for which the viability at 24 h, 10 µM in series [1] came out at 160%. In series [2], the inhibition at 1 µM amounted to 58.3%. This compound also yielded an inhibition at 0.1 µM in series [3] of 35.9%.
Taken in the same sequence, the figures for `Cc1cccnc1NC(=O)[C@@H]1Cc2c3ccccc3[nH]c2[C@]2(C[C@H](c3ccccc3)C2)N1` were 159%, 49.8% and 16.7%.
For `Cc1cccc(C)c1NC(=O)[C@@H]1Cc2c([nH]c3ccccc23)C2(CN(c3ccc(C#N)cc3)C2)N1`, in that order: 105%, 48.3% and 37.3%.
Regarding `O=C(Nc1ccccc1F)[C@@H]1Cc2c3ccccc3[nH]c2[C@]2(C[C@H](c3ccccc3)C2)N1`, the viability at 24 h, 10 µM in series [1] was 63.6%. Further, in series [2], the inhibition at 1 µM was determined as 40.7%. Further, the inhibition at 0.1 µM in series [3] amounted to 17.6%.
With `Cc1cccc(C)c1NC(=O)[C@@H]1Cc2c3ccccc3[nH]c2[C@]2(C[C@@H](c3ccccc3)C2)N1`, the viability at 24 h, 10 µM in series [1] is 105%. Besides, in series [2], the inhibition at 1 µM was determined as 55.1%. In series [3], this compound displayed an inhibition at 0.1 µM of 36.2%.
Taken in the same sequence, the figures for `O=C(Nc1ccccc1F)[C@@H]1Cc2c3ccccc3[nH]c2[C@]2(C[C@@H](c3ccccc3)C2)N1` were 101%, 70.1% and 34.4%.
As for `Cc1cccc(C)c1NC(=O)[C@@H]1Cc2c([nH]c3ccccc23)C2(CCN(c3ccccc3)CC2)N1`, the viability at 24 h, 10 µM in series [1] was 120%. In addition, the inhibition at 1 µM in series [2] was determined as 30.2%.
With `O=C(Nc1ccccn1)[C@@H]1Cc2c3ccccc3[nH]c2[C@]2(C[C@@H](c3ccccc3)C2)N1`, the viability at 24 h, 10 µM in series [1] was found to be 127%. For the same compound, the inhibition at 1 µM in series [2] is 41.2%. This compound came in with an inhibition at 0.1 µM in series [3] of 16.1%.
For `Cc1cccc(C)c1NC(=O)[C@H]1Cc2c3ccccc3[nH]c2[C@]2(C[C@H](c3ccccc3)C2)N1`, in that order: 105%, 45.7% and 12.3%.
Regarding `CC(C)c1ccccc1NC(=O)[C@@H]1Cc2c3ccccc3[nH]c2[C@]2(C[C@H](c3ccccc3)C2)N1`, in series [1], the viability at 24 h, 10 µM is 103%. In addition, in series [2], the inhibition at 1 µM was 37.5%. Besides, testing at 0.1 µM in series [3] gave an inhibition of 12.7%.
For `Cc1cccc(C)c1NC(=O)[C@@H]1Cc2c([nH]c3ccccc23)[C@](C)(CCc2ccccc2)N1`, in that order: 117%, 48.3% and 37.3%.
For `CC(C)c1ccccc1NC(=O)[C@@H]1Cc2c3ccccc3[nH]c2[C@]2(C[C@@H](c3ccccc3)C2)N1`, in that order: 116%, 62.5% and 26.5%.
Taken in the same sequence, the figures for `Cc1cccc(C)c1NC(=O)[C@@H]1Cc2c([nH]c3ccccc23)C2(CN(c3ccc(F)cc3)C2)N1` were 119%, 57.4% and 23.1%.
As for `COc1ccc(N2CC3(C2)N[C@H](C(=O)Nc2c(C)cccc2C)Cc2c3[nH]c3ccccc23)cc1`, the viability at 24 h, 10 µM in series [1] is 102%. This compound returned an inhibition at 1 µM in series [2] of 48.6%. This compound returned an inhibition at 0.1 µM in series [3] of 34.6%.
Taken in the same sequence, the figures for `Cc1ccccc1NC(=O)[C@@H]1Cc2c3ccccc3[nH]c2[C@]2(C[C@H](c3ccccc3)C2)N1` were 112%, 66.5% and 16.5%.
On to `Cc1cc2occ(CN(C)CCN(C)Cc3cn(-c4cccc(C(F)(F)F)c4)c4ccccc34)c(=O)c2cc1C`, for which the viability at 24 h, 10 µM in series [1] was found to be 3.8%. Further, the pIC50 in series [4] is 6.00. Also, the inhibition at 1 µM in series [2] worked out at 56.1%. This compound also showed an inhibition at 0.1 µM in series [3] of 18.4%.
With `Cc1ccccc1NC(=O)[C@@H]1Cc2c3ccccc3[nH]c2[C@]2(C[C@@H](c3ccccc3)C2)N1`, in series [1], the viability at 24 h, 10 µM was found to be 102%. The inhibition at 1 µM in series [2] was 54.4%. Further, the inhibition at 0.1 µM in series [3] is 23%.
For `COc1cccc(OC)c1NC(=O)[C@@H]1Cc2c3ccccc3[nH]c2[C@]2(C[C@@H](c3ccccc3)C2)N1`, in series [1], the viability at 24 h, 10 µM amounted to 70.2%. This compound also yielded an inhibition at 1 µM in series [2] of 32.3%. This compound came in with an inhibition at 0.1 µM in series [3] of 16.5%.
`CC(C)c1cccc(C(C)C)c1NC(=O)[C@@H]1Cc2c3ccccc3[nH]c2[C@]2(C[C@@H](c3ccccc3)C2)N1`: the viability at 24 h, 10 µM in series [1] turned out to be 115%. In series [2], the inhibition at 1 µM came out at 66.9%. Also, the inhibition at 0.1 µM in series [3] stood at 23.6%.
For `Cc1cccc(C)c1NC(=O)[C@@H]1Cc2c([nH]c3ccccc23)C2(CN(c3cccnc3)C2)N1`, in that order: 107%, 52.5% and 11.5%.
Take `CN(C)c1ccccc1NC(=O)[C@@H]1Cc2c3ccccc3[nH]c2[C@]2(C[C@@H](c3ccccc3)C2)N1`: the viability at 24 h, 10 µM in series [1] turned out to be 109%. Besides, the inhibition at 1 µM in series [2] turned out to be 89.9%. The inhibition at 0.1 µM in series [3] is 32.2%.
For `CCc1ccc(N2CC3(C2)N[C@H](C(=O)Nc2c(C)cccc2C)Cc2c3[nH]c3ccccc23)cc1`, the viability at 24 h, 10 µM in series [1] is 101%. Also, in series [2], the inhibition at 1 µM was 35.9%. For the same compound, in series [3], the inhibition at 0.1 µM was determined as 25.1%.
Turning to `Cc1cccc(C)c1NC(=O)[C@H]1Cc2c3ccccc3[nH]c2[C@]2(C[C@@H](c3ccccc3)C2)N1`, in series [1], the viability at 24 h, 10 µM is 116%. The compound further yielded an inhibition at 1 µM in series [2] of 23.8%.
For `Cc1cccc(C)c1NC(=O)[C@H]1Cc2c([nH]c3ccccc23)C2(CN(c3ccccc3)C2)N1`, the viability at 24 h, 10 µM in series [1] turned out to be 119%. In addition, the inhibition at 1 µM in series [2] amounted to 78.3%. In series [3], this compound came in with an inhibition at 0.1 µM of 42.9%.
Taken in the same sequence, the figures for `Cc1cccc(C)c1NC(=O)[C@@H]1Cc2c([nH]c3ccccc23)[C@@](C)(CCc2ccccc2)N1` were 106%, 52.1% and 23.4%.
For `CN(C)c1ccccc1NC(=O)[C@@H]1Cc2c3ccccc3[nH]c2[C@]2(C[C@H](c3ccccc3)C2)N1`, in that order: 66.3%, 58.4% and 10.2%.
On to `Cc1cccc(C)c1NC(=O)[C@@H]1Cc2c([nH]c3ccccc23)C2(CN(c3ccc(S(C)(=O)=O)cc3)C2)N1`, for which the viability at 24 h, 10 µM in series [1] came out at 106%. The compound further showed an inhibition at 1 µM in series [2] of 52.1%. In addition, in series [3], at 0.1 µM the inhibition was 23.4%.
Regarding `Cc1cccc(C)c1NC(=O)[C@@H]1Cc2c3ccccc3[nH]c2[C@]2(C[C@H](c3ccccc3)C2)N1`, the viability at 24 h, 10 µM in series [1] worked out at 95.1%. Testing at 1 µM in series [2] gave an inhibition of 32.3%. The same compound showed an inhibition at 0.1 µM in series [3] of 29.2%.
Take `CC(C)c1cccc(C(C)C)c1NC(=O)[C@@H]1Cc2c3ccccc3[nH]c2[C@]2(C[C@H](c3ccccc3)C2)N1`: the viability at 24 h, 10 µM in series [1] is 141%. Further, in series [2], the inhibition at 1 µM was determined as 62%. Further, testing at 0.1 µM in series [3] gave an inhibition of 20.7%.
Taken in the same sequence, the figures for `O=C(Nc1ccccn1)[C@@H]1Cc2c3ccccc3[nH]c2[C@]2(C[C@H](c3ccccc3)C2)N1` were 149%, 44.2% and 13.1%.
Turning to `COc1cccc(OC)c1NC(=O)[C@@H]1Cc2c3ccccc3[nH]c2[C@]2(C[C@H](c3ccccc3)C2)N1`, in series [1], the viability at 24 h, 10 µM turned out to be 95.7%. Further, the inhibition at 1 µM in series [2] came out at 35.9%. The inhibition at 0.1 µM in series [3] is 11.5%.
For `Cc1cccc(C)c1NC(=O)[C@@H]1Cc2c([nH]c3ccccc23)C2(CN(c3ccc(C(F)(F)F)cc3)C2)N1`, in that order: 117%, 43.7% and 15.4%.
